A word on the MIC: it is the lowest concentration found to suppress growth.

In brackets after ≈: the same amount, converted by molar mass.

These results are taken from patent publication US8853258B2, “C-linked hydroxamic acid derivatives useful as antibacterial agents” (Pfizer Inc., priority 2009, dated 2014).

Format in all cases: cell-based
Data set [1] has as its system Klebsiella pneumoniae: Ciprofloxacin-resistant isolate, ESBL, clinical isolate (KP-3700). Description: MIC determination (CLSI), KP-3700. A digest of the protocol:
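Strain KP-3700, a clinical isolate producing extended-spectrum β-lactamases and resistant to ciprofloxacin, was tested. Minimum inhibitory concentrations determined via CLSI dilution methodology (M7-A7; M100-S18).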

Data set [2] has as its system Acinetobacter baumanii/haemolyticus: Multidrug-resistant clinical isolate (AB-3167). Description: MIC determination (CLSI), AB-3167. The settings on record: Acinetobacter baumannii; Table 3; read-out: AB-3167 MIC. The method in brief:
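Multidrug-resistant clinical isolate AB-3167 (A. baumannii/haemolyticus) tested for minimum inhibitory concentration following CLSI dilution susceptibility standards M7-A7 and M100-S18.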

In data set [3] the test system is Escherichia coli EC-1: VOGEL, mouse virulent. Description: MIC determination (CLSI), EC-1. The settings on record: Escherichia coli, read-out: EC-1 MIC. A digest of the protocol: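 E. coli Vogel, a mouse-virulent strain (EC-1), was tested. MICs were set by dilution susceptibility testing per CLSI standards M7-A7/M100-S18.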
The subject of data set [4] is Pseudomonas aeruginosa UI-18: Wild-type (PA-7). Description: MIC determination (CLSI), PA-7. The settings on record: Pseudomonas aeruginosa; Table 3; read-out: PA-7 MIC. A digest of the protocol:
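Wild-type P. aeruginosa UI-18 tested for minimum inhibitory concentration. Broth/agar dilution following CLSI standards (M7-A7, M100-S18).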

With `CC(C)Oc1ccc(CCC(C)(C(=O)NO)S(C)(=O)=O)cc1` (stereo not drawn) [Example 234, N-hydroxy-4-(4-isopropoxyphenyl)-2-methyl-2-(methylsulfonyl)butanamide], in data set [1], the “KP-3700 MIC” value is “≧64 mg/L”. Moreover, the MIC in data set [2] is no less than 64 µg/mL; in data set [3], no less than 64 µg/mL; in data set [4] it was 8 µg/mL (≈ 24.3 µM).

Consider `CCOc1ccc(CCC(C)(C(=O)NO)S(C)(=O)=O)cc1` (stereo not drawn) [Example 235, 4-(4-ethoxyphenyl)-N-hydroxy-2-methyl-2-(methylsulfonyl)butanamide], for which the “KP-3700 MIC” value in data set [1] was “≧64 mg/L”. For the same compound, the MIC is no less than 64 µg/mL in data set [2], 32 µg/mL (≈ 101 µM) in data set [3] and 16 µg/mL (≈ 50.7 µM) in data set [4].

With `CCCCOc1ccc(CCC(C)(C(=O)NO)S(C)(=O)=O)cc1` (stereo not drawn) [Example 236, 4-(4-butoxyphenyl)-N-hydroxy-2-methyl-2-(methylsulfonyl)butanamide], the “KP-3700 MIC” value in data set [1] is given as “≧64 mg/L”. Further, the MIC in data set [2] was determined as 32 µg/mL (≈ 93.2 µM); in data set [3] it was 16 µg/mL (≈ 46.6 µM); in data set [4] it was 8 µg/mL (≈ 23.3 µM).

Regarding `CCCOc1ccc(CCC(C)(C(=O)NO)S(C)(=O)=O)cc1` (stereo not drawn) [Example 237, N-hydroxy-2-methyl-2-(methylsulfonyl)-4-(4-propoxyphenyl)butanamide], in data set [1], the “KP-3700 MIC” value is reported as “≧64 mg/L”. The MIC in data set [2] was no less than 64 µg/mL; in data set [3], 32 µg/mL (≈ 97.1 µM); in data set [4] it was 8 µg/mL (≈ 24.3 µM).

As for `CC(CCc1ccc(OC2CCCCC2)cc1)(C(=O)NO)S(C)(=O)=O` (stereo not drawn) [Example 238, 4-[4-(cyclohexyloxy)phenyl]-N-hydroxy-2-methyl-2-(methylsulfonyl)butanamide], the “KP-3700 MIC” value in data set [1] was “≧64 mg/L”. Further, the MIC in data set [2] came to 32 µg/mL (≈ 86.6 µM); in data set [3], 32 µg/mL (≈ 86.6 µM); in data set [4], 8 µg/mL (≈ 21.7 µM).

As for `CCC(CC)COc1ccc(CCC(C)(C(=O)NO)S(C)(=O)=O)cc1` (stereo not drawn) [Example 239, 4-[4-(2-ethylbutoxy)phenyl]-N-hydroxy-2-methyl-2-(methylsulfonyl)butanamide], the “KP-3700 MIC” value in data set [1] is “≧64 mg/L”. Moreover, the minimal inhibitory concentration (MIC) was 4 µg/mL (≈ 10.8 µM) in data set [2], 16 µg/mL (≈ 43.1 µM) in data set [3] and 8 µg/mL (≈ 21.5 µM) in data set [4].

Consider `CCC(c1ccccc1)c1noc(COc2ccc(CCC(C)(C(=O)NO)S(C)(=O)=O)cc2)n1` (stereo not drawn) [Example 240, N-hydroxy-2-methyl-2-(methylsulfonyl)-4-(4-{[3-(1-phenylpropyl)-1,2,4-oxadiazol-5-yl]methoxy}phenyl)butanamide], for which the “KP-3700 MIC” value in data set [1] was “≧64 mg/L”. Also, the values for the minimum inhibitory concentration (MIC) in data set [2], in data set [3] and in data set [4] were no less than 64 µg/mL, 32 µg/mL (≈ 65.6 µM) and no less than 64 µg/mL, respectively.

On to `CC(CCc1ccc(OCc2nc(-c3cccc(F)c3)no2)cc1)(C(=O)NO)S(C)(=O)=O` (stereo not drawn) [Example 241, 4-(4-{[3-(3-fluorophenyl)-1,2,4-oxadiazol-5-yl]methoxy}phenyl)-N-hydroxy-2-methyl-2-(methylsulfonyl)butanamide], for which the “KP-3700 MIC” value in data set [1] is “≧64 mg/L”. For the same compound, the MIC was found to be 16 µg/mL (≈ 34.5 µM) in data set [2], 8 µg/mL (≈ 17.3 µM) in data set [3] and 32 µg/mL (≈ 69 µM) in data set [4].

For `CC(CCc1ccc(OCCCOCc2ccccc2)cc1)(C(=O)NO)S(C)(=O)=O` (stereo not drawn) [Example 243, 4-{4-[3-(benzyloxy)propoxy]phenyl}-N-hydroxy-2-methyl-2-(methylsulfonyl)butanamide], in data set [1], the “KP-3700 MIC” value is listed as “≧64 mg/L”. Moreover, the MIC is 32 µg/mL (≈ 73.5 µM) in data set [2], 32 µg/mL (≈ 73.5 µM) in data set [3] and no less than 64 µg/mL in data set [4].

For the compound `Cc1ncccc1COc1ccc(CCC(C)(C(=O)NO)S(C)(=O)=O)cc1` (stereo not drawn) [Example 245, N-hydroxy-2-methyl-4-{4-[(2-methylpyridin-3-yl)methoxy]phenyl}-2-(methylsulfonyl)butanamide], in data set [1], the “KP-3700 MIC” value is recorded as “≧64 mg/L”. Besides, the MIC in data set [2] is no less than 64 µg/mL; in data set [3], no less than 64 µg/mL; in data set [4], 32 µg/mL (≈ 81.5 µM).

On to `CC(CCc1ccc(OCC2CC2)cc1)(C(=O)NO)S(C)(=O)=O` (stereo not drawn) [Example 246, 4-[4-(cyclopropylmethoxy)phenyl]-N-hydroxy-2-methyl-2-(methylsulfonyl)butanamide], for which the “KP-3700 MIC” value in data set [1] is on record as “≧64 mg/L”. The minimum inhibitory concentration (MIC) in data set [2] was no less than 64 µg/mL; in data set [3] it was 32 µg/mL (≈ 93.7 µM); in data set [4] it was no less than 64 µg/mL.

For `CC(CCc1ccc(OCCOc2ccccc2)cc1)(C(=O)NO)S(C)(=O)=O` (stereo not drawn) [Example 248, N-hydroxy-2-methyl-2-(methylsulfonyl)-4-[4-(2-phenoxyethoxy)phenyl]butanamide], in data set [1], the “KP-3700 MIC” value was found to be 8 µg/mL. Further, the MIC was 32 µg/mL (≈ 78.5 µM) in data set [2], 2 µg/mL (≈ 4.91 µM) in data set [3] and 32 µg/mL (≈ 78.5 µM) in data set [4].

As to `CC(CCc1ccc(OCc2ccc(F)cc2C(F)(F)F)cc1)(C(=O)NO)S(C)(=O)=O` (stereo not drawn) [Example 249, 4-(4-{[4-fluoro-2-(trifluoromethyl)benzyl]oxy}phenyl)-N-hydroxy-2-methyl-2-(methylsulfonyl)butanamide], the “KP-3700 MIC” value in data set [1] is given as “≧64 mg/L”. Also, the MIC in data set [2], in data set [3] and in data set [4] was 16 µg/mL (≈ 34.5 µM) throughout.

Consider `CC(CCc1ccc(OCc2cccc(Cl)c2)cc1)(C(=O)NO)S(C)(=O)=O` (stereo not drawn) [Example 250, 4-{4-[(3-chlorobenzyl)oxy]phenyl}-N-hydroxy-2-methyl-2-(methylsulfonyl)butanamide], for which the “KP-3700 MIC” value in data set [1] was 8 µg/mL. Also, the MIC worked out at 4 µg/mL (≈ 9.71 µM) in data set [2], 2 µg/mL (≈ 4.86 µM) in data set [3] and 4 µg/mL (≈ 9.71 µM) in data set [4].

As for `CCCCCCOc1ccc(CCC(C)(C(=O)NO)S(C)(=O)=O)cc1` (stereo not drawn) [Example 252, 4-[4-(hexyloxy)phenyl]-N-hydroxy-2-methyl-2-(methylsulfonyl)butanamide], the “KP-3700 MIC” value in data set [1] turned out to be 32 µg/mL. For the same compound, the MIC in data set [2] came out at 4 µg/mL (≈ 10.8 µM); in data set [3], 8 µg/mL (≈ 21.5 µM); in data set [4] it was 16 µg/mL (≈ 43.1 µM).

As to `CC(CCc1ccc(OCc2nc(-c3cccc(F)c3F)no2)cc1)(C(=O)NO)S(C)(=O)=O` (stereo not drawn) [Example 253, 4-(4-{[3-(2,3-difluorophenyl)-1,2,4-oxadiazol-5-yl]methoxy}phenyl)-N-hydroxy-2-methyl-2-(methylsulfonyl)butanamide], the “KP-3700 MIC” value in data set [1] is “≧64 mg/L”. Further, the minimum inhibitory concentration (MIC) was no less than 64 µg/mL in data set [2], 8 µg/mL (≈ 16.6 µM) in data set [3] and 32 µg/mL (≈ 66.5 µM) in data set [4].

For `Cc1ccc(C)c(COc2ccc(CCC(C)(C(=O)NO)S(C)(=O)=O)cc2)c1` (stereo not drawn) [Example 254, 4-{4-[(2,5-dimethylbenzyl)oxy]phenyl}-N-hydroxy-2-methyl-2-(methylsulfonyl)butanamide], the “KP-3700 MIC” value in data set [1] was “≧64 mg/L”. For the same compound, the MIC in data set [2] was 16 µg/mL (≈ 39.5 µM); in data set [3], 8 µg/mL (≈ 19.7 µM); in data set [4] it was 16 µg/mL (≈ 39.5 µM).

In the case of `CC(CCc1ccc(OCc2nc(-c3cc(F)cc(F)c3)no2)cc1)(C(=O)NO)S(C)(=O)=O` (stereo not drawn) [Example 255, 4-(4-{[3-(3,5-difluorophenyl)-1,2,4-oxadiazol-5-yl]methoxy}phenyl)-N-hydroxy-2-methyl-2-(methylsulfonyl)butanamide], the “KP-3700 MIC” value in data set [1] is given as “≧64 mg/L”. Moreover, the MIC was 16 µg/mL (≈ 33.2 µM) in data set [2], 16 µg/mL (≈ 33.2 µM) in data set [3] and no less than 64 µg/mL in data set [4].

As to `CC(CCc1ccc(OCc2nc(Cc3cc(F)ccc3F)no2)cc1)(C(=O)NO)S(C)(=O)=O` (stereo not drawn) [Example 256, 4-(4-{[3-(2,5-difluorobenzyl)-1,2,4-oxadiazol-5-yl]methoxy}phenyl)-N-hydroxy-2-methyl-2-(methylsulfonyl)butanamide], the “KP-3700 MIC” value in data set [1] was “≧64 mg/L”. The values for the MIC in data set [2], in data set [3] and in data set [4] were no less than 64 µg/mL, 32 µg/mL (≈ 64.6 µM) and no less than 64 µg/mL, respectively.

On to `Cc1cc(C)cc(COc2ccc(CCC(C)(C(=O)NO)S(C)(=O)=O)cc2)c1` (stereo not drawn) [Example 257, 4-{4-[(3,5-dimethylbenzyl)oxy]phenyl}-N-hydroxy-2-methyl-2-(methylsulfonyl)butanamide], for which, in data set [1], the “KP-3700 MIC” value is 32 µg/mL. The figures for the MIC in data set [2], in data set [3] and in data set [4] were no less than 64 µg/mL, 4 µg/mL (≈ 9.86 µM) and 32 µg/mL (≈ 78.9 µM), respectively.

Regarding `COc1ccc(F)c(-c2noc(COc3ccc(CCC(C)(C(=O)NO)S(C)(=O)=O)cc3)n2)c1` (stereo not drawn) [Example 259, 4-(4-{[3-(2-fluoro-5-methoxyphenyl)-1,2,4-oxadiazol-5-yl]methoxy}phenyl)-N-hydroxy-2-methyl-2-(methylsulfonyl)butanamide], the “KP-3700 MIC” value in data set [1] was “≧64 mg/L”. Also, the MIC was no less than 64 µg/mL in data set [2], 16 µg/mL (≈ 32.4 µM) in data set [3] and no less than 64 µg/mL in data set [4].

Turning to `Cc1cccc(COc2ccc(CCC(C)(C(=O)NO)S(C)(=O)=O)cc2)c1F` (stereo not drawn) [Example 262, 4-{4-[(2-fluoro-3-methylbenzyl)oxy]phenyl}-N-hydroxy-2-methyl-2-(methylsulfonyl)butanamide], the “KP-3700 MIC” value in data set [1] was determined as 8 µg/mL. The MIC in data set [2] is 16 µg/mL (≈ 39.1 µM); in data set [3], 1 µg/mL (≈ 2.44 µM); in data set [4], 2 µg/mL (≈ 4.88 µM).

Regarding `Cc1ccc(COc2ccc(CCC(C)(C(=O)NO)S(C)(=O)=O)cc2)cc1` (stereo not drawn) [Example 263, N-hydroxy-2-methyl-4-{4-[(4-methylbenzyl)oxy]phenyl}-2-(methylsulfonyl)butanamide], the “KP-3700 MIC” value in data set [1] stood at 8 µg/mL. Also, the MIC in data set [2] turned out to be 16 µg/mL (≈ 40.9 µM); in data set [3], 2 µg/mL (≈ 5.11 µM); in data set [4] it was 4 µg/mL (≈ 10.2 µM).

For `CC(CCc1ccc(OCCCc2ccccc2)cc1)(C(=O)NO)S(C)(=O)=O` (stereo not drawn) [Example 264, N-hydroxy-2-methyl-2-(methylsulfonyl)-4-[4-(3-phenylpropoxy)phenyl]butanamide], in data set [1], the “KP-3700 MIC” value is 16 µg/mL. Further, the figures for the minimum inhibitory concentration (MIC) in data set [2], in data set [3] and in data set [4] were 8 µg/mL (≈ 19.7 µM), 4 µg/mL (≈ 9.86 µM) and 32 µg/mL (≈ 78.9 µM), respectively.
